Measured values as given in patent US20230233580A1, “USE OF OXYGENATED CHOLESTEROL SULFATES FOR CANCERS AND NON-CANCEROUS TRANSFORMATIONS RELATED TO EPSTEIN-BARR VIRUS” (priority 2020, published 2023).

Legend:
[1] = Metabolite profiling of plasma and feces, oral dose; assay type: in vivo, rats; conditions: oral 75 mg/kg
Text: Radiolabeled components in plasma and feces extracts were profiled and identified using radio-high performance liquid chromatography (HPLC) and high performance liquid chromatography/mass spectrometry (HPLC/MS) methods.

[2] = test system: 3 DNMTs and 9 other epigenetic enzymes; experiment: Enzyme kinetic study of epigenetic enzymes; assay type: biochemical; conditions: for effect on enzymatic activities: controls
[3] = Tissue distribution by quantitative whole body autoradiography, intravenous dose; assay type: in vivo, male Sprague Dawley rats; conditions: intravenous 10 mg/kg
Experimental: Nine male Sprague Dawley rats (Group 1) were designated for the pharmacokinetic phase, 3 male Sprague Dawley rats (Group 2) for the excretion mass balance phase, and 7 male Sprague Dawley rats (Group 3) and 9 male Long Evans rats (Group 4) for the tissue distribution phase. […] Blood samples were collected from all Group 1 animals at approximately 0.083, 0.25, 0.5, 1, 2, 4, 8, 12, 24, 48, and 72 hours post-dose. Urine and feces were collected from all Group 2 animals periodically through 168 hours post-dose. […] Following blood collection, animals were euthanized by CO2 inhalation and carcasses frozen in a dry ice/hexane bath for processing by quantitative whole body autoradiography. Whole blood, plasma, urine, feces, cage rinse, and cage wash were analyzed for total radioactivity by liquid scintillation counting.

[4] = Tissue distribution by quantitative whole body autoradiography, oral dose; assay type: in vivo, male Sprague Dawley rats
[5] = Tissue distribution by quantitative whole body autoradiography, intravenous dose, pigmented rats; assay type: in vivo, male Long Evans rats; conditions: intravenous 10 mg/kg
Text: (§1) The objectives of this study were to determine the plasma pharmacokinetics of [4-^14C]-25HC3S-derived radioactivity in male Sprague Dawley rats, determine the routes of elimination and excretion mass balance of [4-^14C]-25HC3S-derived radioactivity in male Sprague Dawley rats, determine the tissue distribution and tissue pharmacokinetics of [4-^14C]-25HC3S-derived radioactivity using quantitative whole body autoradiography methods in male Sprague Dawley and Long Evans rats following a single intravenous (bolus) dose, and to provide plasma, urine, and fecal homogenate samples for metabolite profiling of [4-^14C]-25HC3S-derived radioactivity.
(§2) Nine male Sprague Dawley rats (Group 1) were designated for the pharmacokinetic phase, 3 male Sprague Dawley rats (Group 2) for the excretion mass balance phase, and 7 male Sprague Dawley rats (Group 3) and 9 male Long Evans rats (Group 4) for the tissue distribution phase. All animals received a single intravenous dose of [^14C]-25HC3S at 10 mg/kg and a target radioactivity of 225 pCi/kg. […] Following blood collection, animals were euthanized by CO2 inhalation and carcasses frozen in a dry ice/hexane bath for processing by quantitative whole body autoradiography. Whole blood, plasma, urine, feces, cage rinse, and cage wash were analyzed for total radioactivity by liquid scintillation counting.

[6] = Excretion mass balance, intravenous dose; assay type: in vivo, male Sprague Dawley rats; conditions: over 168 hours, intravenous 10 mg/kg, rats
Text: as §1, §2

[7] = Plasma pharmacokinetics of radioactivity, oral dose; assay type: in vivo; conditions: single oral (gavage) dose 75 mg/kg, rats
[8] = Excretion mass balance, oral dose; assay type: in vivo; conditions: oral (gavage) 75 mg/kg, rats
[9] = Plasma pharmacokinetics of radioactivity, intravenous dose; assay type: in vivo, male Sprague Dawley rats; conditions: single intravenous (bolus) dose 10 mg/kg, rats
Text: as §1
Nine male Sprague Dawley rats (Group 1) were designated for the pharmacokinetic phase, 3 male Sprague Dawley rats (Group 2) for the excretion mass balance phase, and 7 male Sprague Dawley rats (Group 3) and 9 male Long Evans rats (Group 4) for the tissue distribution phase. All animals received a single intravenous dose of [^14C]-25HC3S at 10 mg/kg and a target radioactivity of […]. Blood samples were collected from all Group 1 animals at approximately 0.083, 0.25, 0.5, 1, 2, 4, 8, 12, 24, 48, and 72 hours post-dose. Urine and feces were collected from all Group 2 animals periodically through 168 hours post-dose. […] Following blood collection, animals were euthanized by CO2 inhalation and carcasses frozen in a dry ice/hexane bath for processing by quantitative whole body autoradiography. Whole blood, plasma, urine, feces, cage rinse, and cage wash were analyzed for total radioactivity by liquid scintillation counting.

[10] = calculated using AUClast, oral 75 mg/kg

## C[C@H](CCCC(C)(C)O)[C@H]1CC[C@H]2[C@@H]3CC=C4C[C@@H](O)CC[C@]4(C)[C@H]3CC[C@]12C [25HC, 25-Hydroxycholesterol, reference compound]
[1]; 0 to 168 hours post-dose pools
  amount in feces, % of total dose: 1.9 % of total dose
[1]; 2 hour post-dose plasma
  relative observed intensity (ROI) in plasma: 37%

## C[C@@H](CO)CCC[C@@H](C)[C@H]1CC[C@H]2[C@@H]3CC=C4C[C@@H](O)CC[C@]4(C)[C@H]3CC[C@]12C [27HC, 27-Hydroxycholesterol]
[2]
  effect on other enzymes (than DNMT-1): no effect

## CC(C)CCC[C@@H](C)[C@H]1CC[C@H]2[C@@H]3CC=C4C[C@@H](OS(=O)(=O)O)CC[C@]4(C)[C@H]3CC[C@]12C [Xol3S, 5-cholesten-3β-ol, 3-sulfate]
[2]
  effect on enzymatic activities: did not significantly affect

## CC(C)CCC[C@@H](C)[C@H]1CC[C@H]2[C@@H]3CC=C4C[C@@H](O)CC[C@]4(C)[C@H]3CC[C@]12C [Xol, Cholesterol]
[2]
  effect on enzymatic activities: did not significantly affect

## C[C@H](CCCC(C)(C)O)[C@H]1CC[C@H]2[C@@H]3CC=C4[14CH2][C@@H](OS(=O)(=O)O)CC[C@]4(C)[C@H]3CC[C@]12C [[4-^14C]-25HC3S]
[3]; calculated using AUClast
  tissue:plasma ratio, liver: 11.4
  tissue:plasma ratio, small intestine (wall): 7.44
[3]; Group 3
  plasma:whole blood AUClast ratio: 0.79
  whole blood AUClast: 25,200 h*ng-equiv./g
[3]; QWBA phase
  maximum plasma concentration: 12,400 ng-equiv./g
[3]; derived radioactivity
  AUClast in the liver: ≤ 364,000 h-ng/g
[3]; detected in all tissues except the eye (lens)
  tissue distribution of compound and/or metabolites: broadly distributed
[4]; [10]
  tissue:plasma ratio, adrenal gland: 6.64
  tissue:plasma ratio, liver: 6.96
  tissue:plasma ratio, small intestine (wall): 15.4
[4]; oral 75 mg/kg
  Skin, thymus, prostate, and pituitary tissue concentrations: < 3000 ng equiv./g
  tissue Tmax: ≤ 6 hours post-dose
[4]; oral 75 mg/kg, detected in all tissues except the eye (lens)
  tissue distribution of compound and/or metabolites: broadly distributed
[4]; oral (gavage) 75 mg/kg
  plasma:whole blood AUClast ratio: 1.12
  whole blood AUClast: 127,000 h-ng equiv./g
[5]; first 168 hours post-dose
  plasma or whole blood concentrations versus Sprague Dawley rats: no substantial difference
[5]
  binding to pigmented or non-pigmented skin or the uveal tract: no difference
[6]
  dose recovered in urine, feces, and cage rinse: approximately 100.2%
  recovered radioactivity in feces: 83.0%
[7]
  plasma AUClast: 96,400 h-ng equiv./g
  terminal elimination phase T1/2: 27.3 h
[8]
  dose recovered in urine, feces, and cage rinse: approximately 94.5%
  recovered radioactivity in feces: 94.2%
[9]; PK phase
  terminal elimination phase T1/2, plasma: 26.6 h
[9]; total radioactivity
  mean plasma C0: 25,900 ng-equiv./g
  plasma AUClast: 27,900 h*ng-equiv./g

## desmosterol sulfate
[1]; radiolabeled
  detection in plasma or feces samples: not found
